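Each compound was tested at five concentrations against cells in 96-well plates for 48 hours. GI50: concentration for 50% inhibition of growth. The concentration for full growth arrest is given as TGI.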
Key:
Test in all cases: NCI tumour cell line growth inhibition, 48 h
SW-620 colon = system: SW-620 colon
SNB-75 CNS = system: SNB-75 CNS
M14 melanoma = system: M14 melanoma
K-562 leukemia = system: K-562 leukemia
OVCAR-5 ovarian = system: OVCAR-5 ovarian
SF-539 CNS = system: SF-539 CNS
MOLT-4 leukemia = system: MOLT-4 leukemia
SF-295 CNS = system: SF-295 CNS
CCRF-CEM leukemia = system: CCRF-CEM leukemia
HT29 colon = system: HT29 colon
RXF 393 renal = system: RXF 393 renal
SF-268 CNS = system: SF-268 CNS
A549 NSCLC = system: A549 NSCLC
COLO 205 colon = system: COLO 205 colon
HCC-2998 colon = system: HCC-2998 colon
786-0 renal = system: 786-0 renal
A498 renal = system: A498 renal
SN12C renal = system: SN12C renal
U251 CNS = system: U251 CNS
ACHN renal = system: ACHN renal
SK-OV-3 ovarian = system: SK-OV-3 ovarian
UO-31 renal = system: UO-31 renal
HCT-116 colon = system: HCT-116 colon
HL-60(TB) leukemia = system: HL-60(TB) leukemia
RPMI-8226 leukemia = system: RPMI-8226 leukemia
MDA-MB-435 = system: MDA-MB-435
TK-10 renal = system: TK-10 renal
NCI-H226 lung = system: NCI-H226 lung

Oc1ccc(-c2nnc(SCc3ccc(O)c4ncccc34)n2-c2ccccc2)cc1 showed a GI50 (SW-620 colon) of 397 nM, a TGI (SW-620 colon) greater than 100000 nM and a GI50 (SNB-75 CNS) of 1500 nM. The TGI (SNB-75 CNS) was greater than 81000 nM, the GI50 (M14 melanoma) was 284 nM and the TGI (M14 melanoma) was 1570 nM. The GI50 (K-562 leukemia) was 290 nM, the TGI (K-562 leukemia) was greater than 100000 nM and the GI50 (OVCAR-5 ovarian) was 1320 nM. For the same compound, the TGI (OVCAR-5 ovarian) was greater than 100000 nM, the GI50 (SF-539 CNS) was 528 nM and the TGI (SF-539 CNS) was greater than 44300 nM. For the same compound, the GI50 (MOLT-4 leukemia) was 394 nM, the TGI (MOLT-4 leukemia) was greater than 100000 nM and the GI50 (SF-295 CNS) was 387 nM. The TGI (SF-295 CNS) was greater than 100000 nM, the GI50 (CCRF-CEM leukemia) was 327 nM and the TGI (CCRF-CEM leukemia) was greater than 100000 nM. For the same compound, the GI50 (HT29 colon) was 3850 nM, the TGI (HT29 colon) was greater than 100000 nM and the GI50 (RXF 393 renal) was 881 nM. The TGI (RXF 393 renal) was greater than 100000 nM, the GI50 (SF-268 CNS) was 465 nM and the TGI (SF-268 CNS) was greater than 100000 nM. The GI50 (A549 NSCLC) was 614 nM, the TGI (A549 NSCLC) was greater than 100000 nM and the GI50 (COLO 205 colon) was 3020 nM. The TGI (COLO 205 colon) was greater than 100000 nM, the GI50 (HCC-2998 colon) was 620 nM and the TGI (HCC-2998 colon) was greater than 63400 nM. The GI50 (786-0 renal) was 770 nM, the TGI (786-0 renal) was 11100 nM and the GI50 (A498 renal) was 570 nM. The TGI (A498 renal) was 5840 nM, the GI50 (SN12C renal) was 348 nM and the TGI (SN12C renal) was greater than 100000 nM. For the same compound, the GI50 (U251 CNS) was 194 nM, the TGI (U251 CNS) was greater than 100000 nM and the GI50 (ACHN renal) was 365 nM. It also gave a TGI (ACHN renal) greater than 100000 nM, a GI50 (SK-OV-3 ovarian) of 496 nM and a TGI (SK-OV-3 ovarian) greater than 25900 nM. For the same compound, the GI50 (UO-31 renal) was 261 nM, the TGI (UO-31 renal) was 4260 nM and the GI50 (HCT-116 colon) was 158 nM. For the same compound, the TGI (HCT-116 colon) was greater than 100000 nM, the GI50 (HL-60(TB) leukemia) was 292 nM and the TGI (HL-60(TB) leukemia) was 2730 nM. For the same compound, the GI50 (RPMI-8226 leukemia) was 391 nM, the TGI (RPMI-8226 leukemia) was greater than 100000 nM and the GI50 (MDA-MB-435) was 380 nM. The TGI (MDA-MB-435) was greater than 100000 nM, the GI50 (TK-10 renal) was 502 nM and the TGI (TK-10 renal) was greater than 100000 nM. The GI50 (NCI-H226 lung) was 718 nM.
